What was measured:
[1] = Plasma stability, mouse plasma; assay type: in vitro ADME; settings: 37 °C
Method: Compound stability in mouse and human plasma and in mouse brain homogenate were conducted, [45]. Specifically, Mal-gluc or DHCA was incubated in duplicate with plasma at 37 °C and samples were taken at various time points and mixed with three volumes of ice-cold Stop Solution (methanol containing propranolol, diclofenac, or other internal standard). Samples were centrifuged to remove precipitated protein, and the supernatants were analyzed by LC/MS/MS to quantitate for remaining test compound. Data are converted to percentage remaining by dividing by the time zero concentration value. Data are fit to a first-order decay model to determine half-life. Plasma protein binding were conducted using both mouse and human plasma.

[2] = target: T1, 5-HT1A (serotonin receptor) (Homo sapiens, UniProt P08908); assay: Radioligand binding assay; settings: 10 µM; HEK membrane fractions; quadruplicate
T1 construct: purchased NIMH Psychoactive Drug Screening Program (PDSP)
Method: (§1) Radioligand binding assays were performed as previously described. Briefly, crude membrane fractions prepared from a stable HEK cell line expressing recombinant receptors were mixed with a radiolabeled specific ligand and 10 µM of competitor compound (DHCA, Mal-gluc, or non-specific ligand). The percentage of radioligand binding was subsequently measured.

[3] = target: T2, 5-HT1B (serotonin receptor) (Homo sapiens, UniProt P28222); assay: Radioligand binding assay; settings: 10 µM; HEK membrane fractions; quadruplicate
T2 construct: purchased NIMH Psychoactive Drug Screening Program (PDSP)
Method: as §1

[4] = target: T3, 5-HT2A (serotonin receptor) (Homo sapiens, UniProt P28223); assay: Radioligand binding assay; settings: 10 µM; HEK membrane fractions; quadruplicate
T3 construct: purchased NIMH Psychoactive Drug Screening Program (PDSP)
Method: as §1

[5] = target: T4, 5-HT2B (serotonin receptor) (Homo sapiens, UniProt P41595); assay: Radioligand binding assay; settings: 10 µM; HEK membrane fractions; quadruplicate
T4 construct: purchased NIMH Psychoactive Drug Screening Program (PDSP)
Method: as §1

[6] = target: T5, 5-HT2C (serotonin receptor) (Homo sapiens, UniProt P28335); assay: Radioligand binding assay; settings: 10 µM; HEK membrane fractions; quadruplicate
T5 construct: purchased NIMH Psychoactive Drug Screening Program (PDSP)
Method: as §1

[7] = target: T6, 5-HT3 (serotonin receptor) (Homo sapiens, UniProt P46098); assay: Radioligand binding assay; settings: for Binding activity, 5-HT3 (percentage): 10 µM, HEK membrane fractions, quadruplicate
T6 construct: expressed in transfected cells; crude membrane fractions
T6 sequence (P46098 24-478): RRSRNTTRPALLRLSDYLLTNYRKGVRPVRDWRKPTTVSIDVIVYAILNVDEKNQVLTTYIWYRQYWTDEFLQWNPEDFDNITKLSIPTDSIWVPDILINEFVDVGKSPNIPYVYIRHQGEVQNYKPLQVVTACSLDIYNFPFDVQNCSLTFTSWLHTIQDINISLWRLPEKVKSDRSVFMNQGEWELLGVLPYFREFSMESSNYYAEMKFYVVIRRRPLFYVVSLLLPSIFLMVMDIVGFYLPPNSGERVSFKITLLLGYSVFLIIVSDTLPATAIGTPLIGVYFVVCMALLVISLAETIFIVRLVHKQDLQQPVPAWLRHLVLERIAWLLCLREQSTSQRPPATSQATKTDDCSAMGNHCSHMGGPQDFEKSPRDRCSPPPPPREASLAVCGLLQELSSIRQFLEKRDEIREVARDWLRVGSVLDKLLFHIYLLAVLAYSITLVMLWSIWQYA
Method: as §1

[8] = target: T7, 5-HT6 (serotonin receptor) (Homo sapiens, UniProt P50406); assay: Radioligand binding assay; settings: 10 µM; HEK membrane fractions; quadruplicate
T7 construct: purchased NIMH Psychoactive Drug Screening Program (PDSP)
Method: as §1

[9] = target: T8, 5-HT7 (serotonin receptor) (Homo sapiens, UniProt P34969); assay: Radioligand binding assay; settings: 10 µM; HEK membrane fractions; quadruplicate
T8 construct: purchased NIMH Psychoactive Drug Screening Program (PDSP)
Method: as §1

[10] = target: T9, 5-hT1e (serotonin receptor) (Homo sapiens, UniProt P28566); assay: Radioligand binding assay; settings: 10 µM; HEK membrane fractions; quadruplicate
T9 construct: purchased NIMH Psychoactive Drug Screening Program (PDSP)
Method: as §1

[11] = target: T10, 5-hT5a (serotonin receptor) (Homo sapiens, UniProt P47898); assay: Radioligand binding assay; settings: 10 µM; HEK membrane fractions; quadruplicate
T10 construct: purchased NIMH Psychoactive Drug Screening Program (PDSP)
Method: as §1

[12] = target: T11, Alpha1D (alpha adrenergic receptor) (Homo sapiens, UniProt P25100); assay: Radioligand binding assay; settings: 10 µM; HEK membrane fractions; quadruplicate
T11 construct: purchased NIMH Psychoactive Drug Screening Program (PDSP)
Method: as §1

[13] = target: T12, Alpha2A (alpha adrenergic receptor) (Homo sapiens, UniProt P08913); assay: Radioligand binding assay; settings: 10 µM; HEK membrane fractions; quadruplicate
T12 construct: purchased NIMH Psychoactive Drug Screening Program (PDSP)
Method: as §1

[14] = target: T13, Alpha2C (alpha adrenergic receptor) (Homo sapiens, UniProt P18825); assay: Radioligand binding assay; settings: 10 µM; HEK membrane fractions; quadruplicate
T13 construct: purchased NIMH Psychoactive Drug Screening Program (PDSP)
Method: as §1

[15] = system: BZP RBS (rat brain benzylpiperazine site); assay: Radioligand binding assay; settings: 10 µM; quadruplicate
Method: as §1

[16] = target: T14, Beta1 (beta adrenergic receptor) (Homo sapiens, UniProt P08588); assay: Radioligand binding assay; settings: 10 µM; HEK membrane fractions; quadruplicate
T14 construct: purchased NIMH Psychoactive Drug Screening Program (PDSP)
Method: as §1

[17] = target: T15, Beta2 (beta adrenergic receptor) (Homo sapiens, UniProt P07550); assay: Radioligand binding assay; settings: 10 µM; HEK membrane fractions; quadruplicate
T15 construct: purchased NIMH Psychoactive Drug Screening Program (PDSP)
Method: as §1

[18] = target: T16, Beta3 (beta adrenergic receptor) (Homo sapiens, UniProt P13945); assay: Radioligand binding assay; settings: 10 µM; HEK membrane fractions; quadruplicate
T16 construct: purchased NIMH Psychoactive Drug Screening Program (PDSP)
Method: as §1

D1 (dopamine receptor) = target: T17, D1 (dopamine receptor) (Homo sapiens, UniProt P21728); assay: Radioligand binding assay; settings: 10 µM; HEK membrane fractions; quadruplicate
T17 construct: purchased NIMH Psychoactive Drug Screening Program (PDSP)
Method: as §1

D2 (dopamine receptor) = target: T18, D2 (dopamine receptor) (Homo sapiens, UniProt P14416); assay: Radioligand binding assay; settings: 10 µM; HEK membrane fractions; quadruplicate
T18 construct: purchased NIMH Psychoactive Drug Screening Program (PDSP)
Method: as §1

D3 (dopamine receptor) = target: T19, D3 (dopamine receptor) (Homo sapiens, UniProt P35462); assay: Radioligand binding assay; settings: 10 µM; HEK membrane fractions; quadruplicate
T19 construct: purchased NIMH Psychoactive Drug Screening Program (PDSP)
Method: as §1

D4 (dopamine receptor) = target: T20, D4 (dopamine receptor) (Homo sapiens, UniProt P21917); assay: Radioligand binding assay; settings: 10 µM; HEK membrane fractions; quadruplicate
T20 construct: purchased NIMH Psychoactive Drug Screening Program (PDSP)
Method: as §1

D5 (dopamine receptor) = target: T21, D5 (dopamine receptor) (Homo sapiens, UniProt P21918); assay: Radioligand binding assay; settings: 10 µM; HEK membrane fractions; quadruplicate
T21 construct: purchased NIMH Psychoactive Drug Screening Program (PDSP)
Method: as §1

[19] = target: T22, DAT (dopamine transporter) (Homo sapiens, UniProt Q01959); assay: Radioligand binding assay; settings: 10 µM; HEK membrane fractions; quadruplicate
T22 construct: purchased NIMH Psychoactive Drug Screening Program (PDSP)
Method: as §1

DOR (δ-opioid receptor) = target: T23, DOR (δ-opioid receptor) (Homo sapiens, UniProt P41143); assay: Radioligand binding assay; settings: 10 µM; HEK membrane fractions; quadruplicate
T23 construct: purchased NIMH Psychoactive Drug Screening Program (PDSP)
Method: as §1

M2 (muscarinic receptor) = target: T24, M2 (muscarinic receptor) (Homo sapiens, UniProt P08172); assay: Radioligand binding assay; settings: 10 µM; HEK membrane fractions; quadruplicate
T24 construct: purchased NIMH Psychoactive Drug Screening Program (PDSP)
Method: as §1

M3 (muscarinic receptor) = target: T25, M3 (muscarinic receptor) (Homo sapiens, UniProt P20309); assay: Radioligand binding assay; settings: 10 µM; HEK membrane fractions; quadruplicate
T25 construct: purchased NIMH Psychoactive Drug Screening Program (PDSP)
Method: as §1

M4 (muscarinic receptor) = target: T26, M4 (muscarinic receptor) (Homo sapiens, UniProt P08173); assay: Radioligand binding assay; settings: 10 µM; HEK membrane fractions; quadruplicate
T26 construct: purchased NIMH Psychoactive Drug Screening Program (PDSP)
Method: as §1

M5 (muscarinic receptor) = target: T27, M5 (muscarinic receptor) (Homo sapiens, UniProt P08912); assay: Radioligand binding assay; settings: 10 µM; HEK membrane fractions; quadruplicate
T27 construct: purchased NIMH Psychoactive Drug Screening Program (PDSP)
Method: as §1

MOR (µ-opioid receptor) = target: T28, MOR (µ-opioid receptor) (Homo sapiens, UniProt P35372); assay: Radioligand binding assay; settings: 10 µM; HEK membrane fractions; quadruplicate
T28 construct: purchased NIMH Psychoactive Drug Screening Program (PDSP)
Method: as §1

[20] = system: PBR (peripheral benzodiazepine receptor); assay: Radioligand binding assay; settings: 10 µM; HEK membrane fractions; quadruplicate
Method: as §1

T7 sequence (P50406 whole entry): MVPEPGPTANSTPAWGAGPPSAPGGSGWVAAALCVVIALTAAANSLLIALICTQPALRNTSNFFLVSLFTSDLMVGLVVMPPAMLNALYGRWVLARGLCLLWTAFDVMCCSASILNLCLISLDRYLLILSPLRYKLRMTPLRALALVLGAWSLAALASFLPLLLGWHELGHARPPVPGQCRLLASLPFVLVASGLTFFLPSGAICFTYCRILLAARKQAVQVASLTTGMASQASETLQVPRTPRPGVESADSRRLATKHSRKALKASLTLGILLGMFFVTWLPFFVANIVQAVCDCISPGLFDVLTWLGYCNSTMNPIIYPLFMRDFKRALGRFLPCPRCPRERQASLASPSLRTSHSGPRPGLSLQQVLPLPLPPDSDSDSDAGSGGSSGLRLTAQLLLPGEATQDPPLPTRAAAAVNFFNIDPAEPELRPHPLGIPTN
T16 sequence (P13945 whole entry): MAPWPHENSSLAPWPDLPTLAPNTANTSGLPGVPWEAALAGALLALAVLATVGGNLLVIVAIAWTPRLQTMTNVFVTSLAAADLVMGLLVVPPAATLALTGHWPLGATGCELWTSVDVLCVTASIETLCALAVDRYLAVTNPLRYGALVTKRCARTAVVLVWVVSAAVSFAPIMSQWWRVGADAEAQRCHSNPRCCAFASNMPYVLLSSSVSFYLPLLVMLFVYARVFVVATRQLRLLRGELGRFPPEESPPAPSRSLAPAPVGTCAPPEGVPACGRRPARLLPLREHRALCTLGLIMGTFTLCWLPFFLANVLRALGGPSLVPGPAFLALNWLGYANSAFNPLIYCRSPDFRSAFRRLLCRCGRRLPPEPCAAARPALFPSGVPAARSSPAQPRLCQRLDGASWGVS
T24 sequence (P08172 whole entry): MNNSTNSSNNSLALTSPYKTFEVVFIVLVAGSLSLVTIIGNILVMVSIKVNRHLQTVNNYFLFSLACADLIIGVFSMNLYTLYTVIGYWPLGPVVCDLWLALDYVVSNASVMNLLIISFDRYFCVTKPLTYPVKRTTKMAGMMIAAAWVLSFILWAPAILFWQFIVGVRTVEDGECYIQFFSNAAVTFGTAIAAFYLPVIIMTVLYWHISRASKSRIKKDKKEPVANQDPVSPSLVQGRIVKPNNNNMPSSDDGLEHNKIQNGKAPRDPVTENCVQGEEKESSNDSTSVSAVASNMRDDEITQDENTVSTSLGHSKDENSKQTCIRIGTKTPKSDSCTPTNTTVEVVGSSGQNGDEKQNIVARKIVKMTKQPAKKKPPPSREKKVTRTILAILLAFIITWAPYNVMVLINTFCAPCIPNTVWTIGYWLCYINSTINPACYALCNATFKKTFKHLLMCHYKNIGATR
T14 sequence (P08588 whole entry): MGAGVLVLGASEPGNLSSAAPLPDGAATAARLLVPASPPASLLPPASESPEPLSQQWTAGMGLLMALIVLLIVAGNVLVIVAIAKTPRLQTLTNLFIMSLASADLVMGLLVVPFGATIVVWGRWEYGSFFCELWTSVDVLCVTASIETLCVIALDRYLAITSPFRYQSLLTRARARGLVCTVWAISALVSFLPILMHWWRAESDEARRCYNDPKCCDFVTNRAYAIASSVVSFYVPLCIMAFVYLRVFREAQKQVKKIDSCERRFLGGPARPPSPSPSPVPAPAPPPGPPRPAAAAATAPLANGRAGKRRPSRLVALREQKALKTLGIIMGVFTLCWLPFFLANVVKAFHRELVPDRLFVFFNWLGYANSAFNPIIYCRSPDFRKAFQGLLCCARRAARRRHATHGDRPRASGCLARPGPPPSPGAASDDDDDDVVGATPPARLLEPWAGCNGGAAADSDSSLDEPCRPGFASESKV
T12 sequence (P08913 whole entry): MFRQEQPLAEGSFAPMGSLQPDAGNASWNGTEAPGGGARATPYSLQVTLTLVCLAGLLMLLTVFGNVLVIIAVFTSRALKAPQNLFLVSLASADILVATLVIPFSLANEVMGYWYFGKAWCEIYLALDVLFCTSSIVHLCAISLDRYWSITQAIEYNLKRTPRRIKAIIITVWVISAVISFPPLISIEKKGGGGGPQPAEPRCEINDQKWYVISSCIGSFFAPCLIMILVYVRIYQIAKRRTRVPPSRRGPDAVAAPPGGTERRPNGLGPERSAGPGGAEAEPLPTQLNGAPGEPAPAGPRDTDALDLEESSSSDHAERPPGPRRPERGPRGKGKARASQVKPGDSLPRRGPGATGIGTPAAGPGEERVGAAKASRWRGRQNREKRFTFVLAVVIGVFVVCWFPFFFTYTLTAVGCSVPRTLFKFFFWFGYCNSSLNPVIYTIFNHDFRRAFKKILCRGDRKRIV
T18 sequence (P14416 whole entry): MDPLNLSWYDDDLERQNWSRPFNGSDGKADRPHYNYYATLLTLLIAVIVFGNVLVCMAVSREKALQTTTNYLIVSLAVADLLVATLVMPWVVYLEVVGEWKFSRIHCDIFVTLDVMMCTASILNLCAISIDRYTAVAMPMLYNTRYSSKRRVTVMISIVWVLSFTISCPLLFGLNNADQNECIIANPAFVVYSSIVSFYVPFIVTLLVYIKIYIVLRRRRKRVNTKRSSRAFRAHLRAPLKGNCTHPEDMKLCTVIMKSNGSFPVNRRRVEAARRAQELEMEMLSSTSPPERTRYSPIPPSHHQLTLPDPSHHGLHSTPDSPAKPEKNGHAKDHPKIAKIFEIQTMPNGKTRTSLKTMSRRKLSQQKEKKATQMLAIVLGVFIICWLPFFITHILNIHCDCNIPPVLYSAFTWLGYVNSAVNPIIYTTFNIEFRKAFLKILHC
T11 sequence (P25100 whole entry): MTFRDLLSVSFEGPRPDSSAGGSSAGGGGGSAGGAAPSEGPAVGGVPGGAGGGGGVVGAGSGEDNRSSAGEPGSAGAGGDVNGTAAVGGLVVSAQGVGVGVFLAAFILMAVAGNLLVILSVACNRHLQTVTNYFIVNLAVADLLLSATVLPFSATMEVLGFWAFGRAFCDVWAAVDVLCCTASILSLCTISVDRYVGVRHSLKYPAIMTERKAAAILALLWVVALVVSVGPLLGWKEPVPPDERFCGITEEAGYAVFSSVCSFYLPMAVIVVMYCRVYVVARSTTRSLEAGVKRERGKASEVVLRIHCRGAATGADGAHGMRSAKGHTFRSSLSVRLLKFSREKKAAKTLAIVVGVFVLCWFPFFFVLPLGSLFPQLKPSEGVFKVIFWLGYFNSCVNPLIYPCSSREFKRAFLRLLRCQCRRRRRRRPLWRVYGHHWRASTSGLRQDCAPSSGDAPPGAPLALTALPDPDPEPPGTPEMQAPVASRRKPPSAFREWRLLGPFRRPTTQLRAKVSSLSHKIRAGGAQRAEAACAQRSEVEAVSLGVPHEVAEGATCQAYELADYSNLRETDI
T27 sequence (P08912 whole entry): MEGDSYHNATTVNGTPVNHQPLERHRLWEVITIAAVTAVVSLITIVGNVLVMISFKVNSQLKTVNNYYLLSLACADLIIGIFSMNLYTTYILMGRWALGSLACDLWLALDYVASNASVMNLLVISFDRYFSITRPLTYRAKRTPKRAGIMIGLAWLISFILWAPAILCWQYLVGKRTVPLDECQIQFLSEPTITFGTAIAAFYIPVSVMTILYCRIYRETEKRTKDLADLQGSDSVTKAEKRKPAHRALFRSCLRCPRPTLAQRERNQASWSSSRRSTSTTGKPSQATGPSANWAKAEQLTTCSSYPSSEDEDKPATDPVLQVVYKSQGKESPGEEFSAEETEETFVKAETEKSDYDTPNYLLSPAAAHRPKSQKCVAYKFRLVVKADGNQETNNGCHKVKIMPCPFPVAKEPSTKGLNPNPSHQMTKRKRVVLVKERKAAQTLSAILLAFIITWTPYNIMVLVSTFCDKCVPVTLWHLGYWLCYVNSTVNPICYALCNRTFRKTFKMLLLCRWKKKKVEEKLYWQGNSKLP
T22 sequence (Q01959 whole entry): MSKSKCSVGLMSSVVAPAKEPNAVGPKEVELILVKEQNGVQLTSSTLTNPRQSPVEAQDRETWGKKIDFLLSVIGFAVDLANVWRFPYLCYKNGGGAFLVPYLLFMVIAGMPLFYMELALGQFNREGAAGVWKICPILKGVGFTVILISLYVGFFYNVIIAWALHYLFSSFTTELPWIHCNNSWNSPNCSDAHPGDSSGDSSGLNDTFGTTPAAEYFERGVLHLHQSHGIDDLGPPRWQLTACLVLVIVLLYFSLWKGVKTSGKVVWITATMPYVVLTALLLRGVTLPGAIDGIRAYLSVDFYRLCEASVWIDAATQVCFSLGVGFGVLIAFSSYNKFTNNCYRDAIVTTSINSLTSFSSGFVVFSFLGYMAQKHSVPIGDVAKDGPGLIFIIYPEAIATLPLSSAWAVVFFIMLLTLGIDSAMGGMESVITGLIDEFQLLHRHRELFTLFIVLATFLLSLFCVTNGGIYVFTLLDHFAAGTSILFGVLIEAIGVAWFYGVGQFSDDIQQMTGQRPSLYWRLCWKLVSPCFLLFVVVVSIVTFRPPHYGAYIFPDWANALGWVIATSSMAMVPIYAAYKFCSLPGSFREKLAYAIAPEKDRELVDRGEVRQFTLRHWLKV
T28 sequence (P35372 whole entry): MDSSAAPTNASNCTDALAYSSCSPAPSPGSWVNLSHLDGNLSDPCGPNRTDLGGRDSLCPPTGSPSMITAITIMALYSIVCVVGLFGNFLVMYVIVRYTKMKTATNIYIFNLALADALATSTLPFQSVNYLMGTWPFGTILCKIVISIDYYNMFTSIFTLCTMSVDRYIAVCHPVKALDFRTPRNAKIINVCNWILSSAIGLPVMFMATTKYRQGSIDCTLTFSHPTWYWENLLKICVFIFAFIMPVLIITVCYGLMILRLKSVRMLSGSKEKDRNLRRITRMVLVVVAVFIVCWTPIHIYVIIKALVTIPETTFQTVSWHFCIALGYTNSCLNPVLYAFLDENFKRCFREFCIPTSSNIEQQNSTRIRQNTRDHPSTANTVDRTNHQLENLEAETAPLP

Compound | Binding activity, 5-HT1A (percentage) [2] | Binding activity, 5-HT1B (percentage) [3] | Binding activity, 5-HT2A (percentage) [4] | Binding activity, 5-HT2B (percentage) [5] | Binding activity, 5-HT2C (percentage) [6] | Binding activity, 5-HT3 (percentage) [7] | Binding activity, 5-HT6 (percentage) [8] | Binding activity, 5-HT7 (percentage) [9] | Binding activity, 5-hT1e (percentage) [10] | Binding activity, 5-hT5a (percentage) [11] | Binding activity, Alpha1D (percentage) [12] | Binding activity, Alpha2A (percentage) [13] | Binding activity, Alpha2C (percentage) [14] | Binding activity, BZP RBS (percentage) [15] | Binding activity, Beta1 (percentage) [16] | Binding activity, Beta2 (percentage) [17] | Binding activity, Beta3 (percentage) [18] | Binding activity, D1 (percentage) (D1 (dopamine receptor)) | Binding activity, D2 (percentage) (D2 (dopamine receptor)) | Binding activity, D3 (percentage) (D3 (dopamine receptor)) | also measured
COc1cc(-c2[o+]c3cc(O)cc(O)c3cc2O[C@@H]2O[C@H](CO)[C@@H](O)[C@H](O)[C@H]2O)cc(OC)c1O [Mal-gluc] | 8.6% | 10.4% | −10.5% | −13.8% | −6.9% | 74.1% | −18.5% | −13.5% | 10.3% | 5.2% | −1.3% | 7.3% | −11% | 5.4% | −15.5% | 1.9% | −17.7% | −10.3% | 7.2% | 7.2% | Plasma stability, Half-life (mouse plasma) [1]: 201 min; Ki ([7]; secondary radioligand binding assay, read-out: calculated inhibitory constant (Ki), 5-HT3): 4.3 µM; Binding activity, D4 (percentage) (D4 (dopamine receptor)): −2%; Binding activity, D5 (percentage) (D5 (dopamine receptor)): −2%; Binding activity, DAT (percentage) [19]: −18.2%; Binding activity, DOR (percentage) (DOR (δ-opioid receptor)): −10.2%; Binding activity, M2 (percentage) (M2 (muscarinic receptor)): 5.2%; Binding activity, M3 (percentage) (M3 (muscarinic receptor)): 23.6%; Binding activity, M4 (percentage) (M4 (muscarinic receptor)): −4.6%; Binding activity, M5 (percentage) (M5 (muscarinic receptor)): −10.2%; Binding activity, MOR (percentage) (MOR (µ-opioid receptor)): −5%; Binding activity, PBR (percentage) [20]: 15.7%
O=C(O)CCc1ccc(O)c(O)c1 [DHCA, 3(3,4-dihydroxy-phenyl) propionic acid] | 3.3% | −11.8% | 18% | −7% | −9.9% | −11.7% | 24.2% | 4.2% | −1.7% | 4.2% | −15.4% | 15.7% | 27.3% | −5.2% | −14.1% | −7.6% | −15.8% | −3.7% | −5.7% | −18.8% | half-life ([1]; mouse, plasma): 44.1 min; Binding activity, D4 (percentage) (D4 (dopamine receptor)): 1.9%; Binding activity, D5 (percentage) (D5 (dopamine receptor)): 5.1%; Binding activity, DAT (percentage) [19]: 34.5%; Binding activity, DOR (percentage) (DOR (δ-opioid receptor)): 9.5%; Binding activity, M2 (percentage) (M2 (muscarinic receptor)): −12.2%; Binding activity, M3 (percentage) (M3 (muscarinic receptor)): 9.4%; Binding activity, M4 (percentage) (M4 (muscarinic receptor)): 3%; Binding activity, M5 (percentage) (M5 (muscarinic receptor)): 21.2%; Binding activity, MOR (percentage) (MOR (µ-opioid receptor)): −7.1%; Binding activity, PBR (percentage) [20]: −13.3%

Reference: paper PMC5797143, “Epigenetic modulation of inflammation and synaptic plasticity promotes resilience against stress in mice” (Nature Communications, 2018)
